Data from ChEMBL document CHEMBL1153322, “Identification of novel and orally active spiroindoline NPY Y5 receptor antagonists” (Bioorg Med Chem Lett, 2009).
The source made the active and inactive calls. The rule behind the calls is not given here.

How the values were obtained:
[1] = molecular target: T1, Neuropeptide Y receptor type 5 (Homo sapiens, UniProt Q15761); experiment: Displacement of [125I]PYY from human recombinant Y5 receptor expressed in mouse LMtk cells; type: cell-based
T1 sequence (Q15761 whole entry): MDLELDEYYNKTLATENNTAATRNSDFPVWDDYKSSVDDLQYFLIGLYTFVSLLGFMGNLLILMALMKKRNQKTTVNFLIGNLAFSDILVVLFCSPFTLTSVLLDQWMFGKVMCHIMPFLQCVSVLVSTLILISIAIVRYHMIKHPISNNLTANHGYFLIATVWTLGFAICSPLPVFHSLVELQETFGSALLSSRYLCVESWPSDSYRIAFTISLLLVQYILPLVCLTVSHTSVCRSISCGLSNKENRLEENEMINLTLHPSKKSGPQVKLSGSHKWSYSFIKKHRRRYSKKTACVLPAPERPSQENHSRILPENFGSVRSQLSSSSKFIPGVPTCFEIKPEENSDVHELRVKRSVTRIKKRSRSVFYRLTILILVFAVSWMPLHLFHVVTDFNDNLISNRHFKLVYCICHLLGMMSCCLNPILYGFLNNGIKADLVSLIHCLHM

[2] = Oral bioavailability in rat at 10 mg/kg; type: ADME, organism-based; conditions: in vivo
[3] = Ratio of drug level in brain to plasma of rat at 3 mg/kg, iv after 60 mins; type: ADME, organism-based; set-up: dose 3 mg/kg, route intravenous; conditions: brain and plasma, read-out: BPR
[4] = Ratio of drug level in brain to plasma of rat at 3 mg/kg, iv after 10 mins; type: ADME, organism-based; set-up: dose 3 mg/kg, route intravenous; conditions: brain and plasma, read-out: BPR
[5] = Solubility at pH 1; type: physicochemical; conditions: buffer
[6] = Solubility at pH 3; type: physicochemical; conditions: buffer
[7] = Solubility at pH 5; type: physicochemical; conditions: buffer
[8] = Lipophilicity, log D at pH 7.4; type: physicochemical; conditions: buffer
[9] = Solubility at pH 7; type: physicochemical; conditions: buffer
[10] = test system: Rattus norvegicus; experiment: Inhibition of bovine-pancreatic polypeptide-induced food intake in po dosed Sprague-Dawley rat assessed as minimum effective dose measured for 2 hrs; type: functional; conditions: read-out: MED
[11] = test system: Rattus norvegicus; experiment: Inhibition of bovine-pancreatic polypeptide-induced food intake in Sprague-Dawley rat at 30 mg/kg, po measured for 2 hrs; type: functional, organism-based; set-up: dose 30 mg/kg
[12] = test system: Rattus norvegicus; experiment: Toxicity in Sprague-Dawley rat assessed as sedation at 30 mg/kg, po; type: organism-based; set-up: dose 30 mg/kg, route oral; conditions: in vivo

Row | SMILES | IC50 [1] [nM] | bioavailability [2] [%] | also measured
1 | CS(=O)(=O)N1CC2(CCN(C(=O)Nc3ccc(Cl)c(Cl)c3)CC2)c2ccccc21 | 0.2 |  | 
2 | CS(=O)(=O)N1CC2(CCN(C(=O)Nc3nccc(-c4ccccc4)n3)CC2)c2ccccc21 | 9.8 |  | 
3 | CS(=O)(=O)N1C[C@]2(CC[C@@H](C(=O)Nc3ccc(-c4ccccc4)cc3)CC2)c2ccccc21 | 200 |  | 
4 | CS(=O)(=O)N1CC2(CCN(C(=O)Nc3cnc(-c4ccccc4)nc3)CC2)c2ccccc21 | 0.86 | 0 | 
5 | CS(=O)(=O)N1CC2(CCN(C(=O)Nc3cnc(-c4ccccc4)cn3)CC2)c2ccccc21 | 0.97 | 0 | 
6 | O=C(Nc1cc(-c2ccc(Cl)cc2)n[nH]1)C1Cc2ccccc2C1 | 59 |  | 
7 | CS(=O)(=O)N1C[C@]2(CC[C@H](C(=O)Nc3ccc(-c4ccccc4)cc3)CC2)c2ccccc21 | 1.5 |  | 
8 | NS(=O)(=O)N1CC2(CCN(C(=O)Nc3ccc(Cl)c(Cl)c3)CC2)c2ccccc21 | 4 |  | 
9 | CCCCc1ccc(NC(=O)N2CCC3(CC2)CN(S(C)(=O)=O)c2ccccc23)cc1 | 1.2 |  | 
10 | CS(=O)(=O)N1CC2(CCN(C(=O)Nc3ccc(-c4ccncc4)cc3)CC2)c2ccccc21 | 4.1 | 53 | minimal effective dose [10]: 10 mg/kg; Kp at 1 h [3]: 0.12; Activity [11]: Active; Activity [12]: Non-toxic; Kp at 10 min [4]: 0.12
11 | CS(=O)(=O)N1CC2(CCN(C(=O)Cc3ccc(-c4ccccc4)cc3)CC2)c2ccccc21 | 180 |  | 
12 | CS(=O)(=O)N1CC2(CCN(C(=O)Nc3ccnc(-c4ccccc4)n3)CC2)c2ccccc21 | 7.5 |  | 
13 | CS(=O)(=O)N1CC2(CCN(C(=O)Nc3ncc(-c4ccccc4)cn3)CC2)c2ccccc21 | 0.57 | 24 | Kp at 1 h [3]: 0.07; Kp at 10 min [4]: 0.14
14 | CS(=O)(=O)N1CC2(CCN(C(=O)Nc3cccc(-c4ccncc4)c3)CC2)c2ccccc21 | 23 |  | 
15 | CS(=O)(=O)Nc1ccccc1N1CCN(C(=O)Nc2cc(-c3ccc(Cl)cc3)n[nH]2)CC1 | 1.4 |  | 

Continued, in another order:

Row | IC50 [1] [nM] | bioavailability [2] [%] | SMILES | also measured
16 | 0.82 | 0 | CS(=O)(=O)N1CC2(CCN(C(=O)Nc3ccc(-c4ccccc4)nc3)CC2)c2ccccc21 | 
17 | 1.3 |  | CS(=O)(=O)N1CC2(CCN(C(=O)Nc3cccc(-c4ccccc4)c3)CC2)c2ccccc21 | 
18 | 2.1 | 47 | CS(=O)(=O)N1CC2(CCN(C(=O)Nc3ccc(-c4cccnc4)cc3)CC2)c2ccccc21 | Kp at 1 h [3]: 0.11; Kp at 10 min [4]: 0.13
19 | 3 |  | NS(=O)(=O)N1CC2(CCN(C(=O)Nc3ccc(Oc4ccccc4)cc3)CC2)c2ccccc21 | 
20 | 3 | 12 | CS(=O)(=O)N1CC2(CCN(C(=O)Nc3ccc(-c4ccccn4)cc3)CC2)c2ccccc21 | Kp at 1 h [3]: 0.24; Kp at 10 min [4]: 0.23
21 | 5 |  | NS(=O)(=O)N1CC2(CCN(C(=O)Nc3ccccc3Cl)CC2)c2ccccc21 | 
22 | 430 |  | CS(=O)(=O)N1CC2(CCN(C(=O)Nc3ccccc3-c3ccccc3)CC2)c2ccccc21 | 
23 | 2 |  | CC(=O)c1ccc(NC(=O)N2CCC3(CC2)CN(S(N)(=O)=O)c2ccccc23)cc1 | 
24 | 0.85 | 0 | CS(=O)(=O)N1CC2(CCN(C(=O)Nc3ccc(-c4ccccc4)cc3)CC2)c2ccccc21 | solubility [5]: < 0.01 µg/mL; solubility [6]: < 0.01 µg/mL; solubility [7]: < 0.01 µg/mL; Kp at 1 h [3]: 1.93; logD [8]: > 4; solubility [9]: < 0.01 µg/mL; Kp at 10 min [4]: 1.3
25 | 3 | 20 | CS(=O)(=O)N1CC2(CCN(C(=O)Nc3ccc(-c4ccccc4)nn3)CC2)c2ccccc21 | Kp at 1 h [3]: 0.32; Kp at 10 min [4]: 0.42
26 | 0.96 | 0 | CS(=O)(=O)N1CC2(CCN(C(=O)Nc3ccc(-c4ccccc4)cn3)CC2)c2ccccc21 | 
